According to patent US8461142B2, “Water-soluble anionic bacteriochlorophyll derivatives and their uses” (Yeda Research and Development Co. Ltd., priority 2002, dated 2013):

Columns and labels:
M2R mouse melanoma cells = experiment: Phototoxicity assay (Neutral Red viability after illumination), M2R cells; assay type: cell-based; conditions: 4 hours incubation; for dark toxicity: kept in the dark, tested range; for LD50 (phototoxicity): washed, illuminated (λ>650 nm, 12 J/cm^2), survival 24 h after illumination
Description: (§1) M2R mouse melanoma, H5V mouse endothelial and C6 rat glioma cells were cultured as monolayers in Dulbecco's modified Eagle's medium (DMEM)/F12 containing 25 mM HEPES, pH 7.4, 10% fetal bovine serum (FBS), glutamine (2 mM), penicillin (0.06 mg/ml), and streptomycin (0.1 mg/ml) (hereinafter referred to as the “Culture Medium”). Cells were grown at 37° C. in an 8% CO2-humidified atmosphere.
(§2) To determine the photodynamic efficacy, cells were preincubated with increasing concentrations of the pigments in the dark for the times and conditions as indicated for the individual experiments. Unbound sensitizer was removed by washing the cells once with culture medium, and the plates were illuminated at room temperature from the bottom (λ>650 nm, 12 J/cm^2). The light source was a 100 W Halogen lamp (Osram, Germany) equipped with a 4-cm water filter. The cultures were placed in the culture incubator and cell survival was determined 24 h after illumination, by Neutral Red viability assay. Three kinds of controls were used: (i) light control: cells illuminated in the absence of pigments; (ii) dark control: cells treated with pigments but kept in the dark; and (iii) untreated cells that were kept in the dark.
(§3) The phototoxicity of compounds 4 and 8 was determined as described in (ii) above in M2R mouse melanoma and H5V mouse endothelial cells. Cells were preincubated with increasing concentrations of the compound for 4 hours, washed and illuminated or kept in the dark.

[1] = system: H5V mouse endothelial cells; experiment: Phototoxicity assay (Neutral Red viability after illumination), H5V cells; assay type: cell-based; conditions: 4 hours incubation; for dark toxicity: kept in the dark, tested range; for LD50 (phototoxicity): washed, illuminated (λ>650 nm, 12 J/cm^2), survival 24 h after illumination
Description: as §1, §2, §3

[2] = Biodistribution in CD1 nude mice (Pd content of organs); assay type: in vivo
Description: Mice were sacrificed at different times following compound 4 injection (6 mg/kg), and Pd content was determined for the indicated organs. Each time point represents average of three mice±STD.
(§4) Pigment 4 of the invention (6 mg/kg body) was injected to CD1 nude mice via tail vein. Mice were sacrificed at the indicated times, and samples of the indicated organs or tissues were placed and weighed in pre-weighted vials and immediately frozen on dry ice. For examination, each sample was thawed and homogenized (1:10 w/v) in double-distilled water. Aliquots of the homogenate (0.5 ml) were lyophilized in Eppendorff test tubes. Then 0.2 ml of HNO3 (70%, TraceSelect, Fluka) was added to each dry sample, incubated for 1 h at 90° C. and diluted in double-distilled water to 10 ml. Palladium concentrations were determined by ICP-MS. Background was determined for each organ/tissue on identical samples taken from untreated mice, and values were subtracted accordingly.

[3] = system: choroid and overlying retina (choriocapillaries)
Description: The WST11 powder was diluted in endotoxin-free sterile water at a concentration of 10 mg/ml, and shaken until complete dissolution. […] To calculate the volume to be injected, adjustment was made according to the rabbit weight. The appropriate volume solution was injected intravenously as a bolus via the marginal ear vein.
Pigmented rabbits (136 “Fauve de Bourgogne” rabbits, 10-12 weeks old, 2.5-3 kg; Elevage des Pins, Epeigne-sur-Dême, France) were used. Acute and long term PDT effects on the rabbit eye were investigated for the following parameters: 1) 753 nm laser fluence (25 and 50 J/cm^2), Compound 4 (also designated WST11) doses (2.5 and 5 mg/kg) and distance to light illumination (DLI) of 1,5,10 and 15 minutes. 2) 689 nm laser fluence (10, 50, 100 J/cm^2), verteporfin doses (3, 6 and 12 mg/m^2) and a constant DLI of 5 min. These PDT parameters encompassed an array of effects on the choroid and the overlying retina were delivered for 83 seconds to induce occlusive, subthreshold occlusive and non-occlusive vascular events. Treated rabbit eyes were examined and followed by indirect ophthalmoscopy, fluorescein angiography (FA) and histology at various intervals after PDT.
For the histology, enucleated eyes were dissected under a binocular microscope. A 4 mm biopsy punch was used to excise the full thickness of treated zones. These tissues were fixed in glutaraldehyde, processed in cacodylate buffer and embedded in plastic. Semi-thin sections were obtained using a microtome and counter-stained with hematoxilin-eosin. These sections were analyzed using phase contrast microscopy. Specific sites of interest were further processed for TEM. Ultrathin sections were obtained using an ultramicrotome and counter-stained with uranyl acetate.

M2R melanoma xenografts = experiment: PDT of M2R melanoma xenografts in CD1 nude mice; assay type: in vivo; conditions: for mice cure rate: 6 mg/kg i.v.
Description: (§5) M2R or C6 cells (2×10^6) were implanted subcutaneously on the back of the mice; tumors developed to the treatment size (6-8 mm) within 2-3 weeks.
Stock solutions of the compounds of the invention were prepared prior to use by dissolving the dry pigment directly in PBS to the desired concentration for injection.
The M2R tumor-bearing mice were anesthetized and the pigment was injected intravenously (i.v.) via the tail vein. The tumors were immediately illuminated transcutaneously for 5 min by 755 nm diode laser (CeramOptec, Germany) with light dose of either 30 J/cm2 (100 mW/cm2), 39 J/cm2 (130 mW/cm2) or 45 J/cm2 (150 mW/cm2). After the treatment, the mice were returned to the cage. […] In the light control group, the mice were illuminated with 45 J/cm^2.
In these experiments (see section (vii) above), a dedicated medical laser matched to the peak absorption of 4 (CeramOptec, Germany, 755 nm) was used. In order to determine the optimal drug/light protocol, mice were treated with drug dose of 6 mg/kg and increasing the light intensity (FIG. 7).

[4] = Aqueous solubility and stability of solution; assay type: physicochemical
Excerpt: Compound 4 is a pure and stable bacteriochlorophyll derivative isolated as a black purple crystalline powder. […] It is characterized by the following properties: (a) 4 main absorption peaks (750, 530, 385 and 330 nm). The strongest absorbance of light is near the infrared (≈750 nm) where tissue transmittance is the highest; (b) a very low cytotoxicity in the dark. Thus, tissue damage can be controlled by the light dose and length of exposure; (c) it is rapidly cleared from the body after administration. Therefore, potential skin photosensitization damage on exposure to ambient light or to the sun light is minimal; (d) generation of reactive oxygen species (ROS) is high because of efficient intersystem crossing (ISC).

[5] = Pharmacokinetics in CD1 nude mice blood (Pd by ICP-MS); assay type: in vivo
Description: as §4, with “FIG. 5 is a graph showing pharmacokinetics of compound 4 in CD1 nude mice blood. Following compound 4 injection (6 mg/kg), blood samples were collected from the same mouse at the indicated times and Pd was determined. Each time point represents average of three mice±STD. Pigment” for “Pigment”, “Then 0.2 ml of HNO3 (70%, TraceSelect, Fluka) was added to each dry sample, incubated for 1 h at 90° C. and diluted in double-distilled water to 10 ml.” left out

rat C6 glioma xenografts = experiment: Vascular shutdown and permeability (Evans Blue) after PDT of C6 glioma xenografts; assay type: in vivo, mice; conditions: 9 mg/kg, 100 mW/cm^2 for 5 min; 24 hours after PDT
Description: FIGS. 8a-8h are photographs showing the selective effect of PDT in mice bearing rat C6 glioma xenografts and treated with compound 4. (a-d) PDT treated animal; (e-h) untreated animal. (a) before treatment; (b) 3 hours after PDT and Evans-Blue (EB) injection; (c) skin flap of the treated area, 24 hours after PDT; (d) axial slice of the treated tumor 24 hours after PDT; (e) before EB injection; (f) 3 hours after EB injection; (g) skin flap 24 hours after EB injection; (h) axial slice of the untreated tumor, 24 hours after EB injection. T-tumor; S-skin; M-muscle; E-edema.
as §5
Mice bearing C6 glioma tumor xenografts were treated with pigment 4 (9 mg/kg) and light (100 mW/cm^2 for 5 min) Immediately after treatment, Evans Blue (EB; 1% in PBS) was injected (0.5 ml, i.p.). Mice were photographed at 3 and 24 hours after treatment. The mice were sacrificed 24 hours after treatment and skin flap was made for each mouse and photographed. Then the tumor was removed with the skin above it, frozen for 1 hour at −20° C., and then axial slice was made and the slice was photographed. Control mice were injected with Evans Blue at the same time as the treated mice, and the protocol was continued as described above for all the mice together.

CC[C@H]1c2cc3[nH]c(c(CC(=O)OC)c4nc(cc5[nH]c(cc(n2)[C@@H]1C)c(C(C)=O)c5C)[C@@H](C)[C@@H]4CCC(=O)O)c(C(=O)NCCS(=O)(=O)[O-])c3C.[K+] [Compound 5, 3^1-oxo-15-methoxycarbonylmethyl-Rhodobacteriochlorin 13^1-(2-sulfoethyl)amide dipotassium salt]
dark toxicity (M2R mouse melanoma cells): no dark toxicity
LD50 (phototoxicity) (M2R mouse melanoma cells): ~5 µM

Palladium 3^1-oxo-15-methoxycarbonylmethyl-Rhodobacteriochlorin 13^1,17^3-di(3-sulfopropyl)amide dipotassium salt [Compound 8]
dark toxicity [1]: without any dark toxicity
LD50 (phototoxicity) [1]: ~2 µM
dark toxicity (M2R mouse melanoma cells): without any dark toxicity
LD50 (phototoxicity) (M2R mouse melanoma cells): ~2 µM

Palladium 3^1-oxo-15-methoxycarbonylmethyl-Rhodobacteriochlorin 13^1-(2-sulfo-ethyl)amide dipotassium salt [Compound 4]
time after injection to background levels in all tissues ([2]; 6 mg/kg i.v.): ≤ 30 min
time for pigment levels to drop to almost background levels in most of the examined organs ([2]; 6 mg/kg i.v.): 20 to 30 min
dark toxicity [1]: without any dark toxicity
LD50 (phototoxicity) [1]: ~2 µM
treated eyes with total choroidal occlusion associated with structural lesions of the overlying RPE and retina ([3]; fluence 50 J/cm^2, 5 mg/kg, DLI 1 minute, 753 nm): 100%
choriocapillaries occlusion and retinal lesions ([3]; non-occlusive parameters: 25 J/cm^2, 5 mg/kg, DLI 10 minutes): did not induce choriocapillaries occlusion nor retinal lesions
duration of occlusion of the choriocapillaries after PDT ([3]; rabbit eye): up to one week
mice cure rate (M2R melanoma xenografts; 30 J/cm^2, 5 min illumination at 755 nm immediately after injection): 43%
mice cure rate (M2R melanoma xenografts; 45 J/cm^2, 5 min illumination at 755 nm immediately after injection): 60%
mice survival (M2R melanoma xenografts; 9 mg/kg i.v., 30 J/cm^2, 5 min illumination): 70%
dark toxicity in animals (M2R melanoma xenografts; 6 or 9 mg/kg, kept in the dark): No dark toxicity
stability of formulation ([4]; 10 mg/ml in endotoxin-free sterile water, 4° C., protected from light): 24 h
solubility ([4]; aqueous solution): soluble in aqueous solution
CL (clearance) ([5]; 6 mg/kg i.v., mice blood): 0.89 mL/min
Kel (rate of elimination) ([5]; 6 mg/kg i.v., mice blood): 0.42 min⁻¹
Vd (volume of distribution) ([5]; 6 mg/kg i.v., mice blood): 2.12 mL
T0.5 ([5]; 6 mg/kg i.v., mice blood, monophasic): 1.65 min
pigment cleared from blood within the first 10-min after i.v. injection ([5]; mouse, in vivo): about 90%
effect on tumor blood perfusion (Evans Blue) (rat C6 glioma xenografts): vascular shutdown
dark toxicity (M2R mouse melanoma cells): without any dark toxicity
LD50 (phototoxicity) (M2R mouse melanoma cells): ~2 µM

Pd-Bacteriopheophorbide a [Pd-Bpheid, reference compound]
time after injection to reach background levels ([2]; mouse body, not shown): 48 h

Zinc 3^1-oxo-15-methoxycarbonylmethyl-Rhodobacteriochlorin 13^1-(2-sulfoethyl) amide dipotassium salt [Compound 11]
dark toxicity (M2R mouse melanoma cells): no dark toxicity
LD50 (phototoxicity) (M2R mouse melanoma cells): ~5 µM

verteporfin [reference compound]
eyes with occlusive events (observed by FA) ([3]; 12 mg/m^2, 100 J/cm^2, DLI 5 minutes, 689 nm): 89%
choriocapillaries occlusion on FA ([3]; non-occlusive parameters: 3 mg/m^2, 10 J/cm^2, DLI 5 minutes): did not induce any choriocapillaries occlusion
